Common to all, as to test: CXCR6 receptor antagonists, dose response, cell-based, beta-arrestin, DiscoveRx, APJ panel, uHTS hits (AID 624129)
For assay [1], the target named is Apelin receptor (Homo sapiens) (UniProt P35414). The note with it: CXCR6 beta-arrestin (DiscoveRx) antagonist cell assay, APJ.
Assay [2] addresses Beta-galactosidase (Escherichia coli) (UniProt Q8VNN2). The following applies: CXCR6 beta-arrestin (DiscoveRx) antagonist cell assay, b-galactosidase.
Assay [3] concerns the target C-C chemokine receptor type 6 (Homo sapiens) (UniProt P51684). The note with it: CXCR6 beta-arrestin (DiscoveRx) antagonist cell assay.
The target in assay [4] is C-X-C chemokine receptor type 6 (Homo sapiens) (UniProt O00574). The note with it: CXCR6 beta-arrestin (DiscoveRx) antagonist cell assay; for inhibition: CXCR6, run 1, dose range 2, at 80 µM (top of the series).
Setting [5] is: dose range 1, mean IC50 across replicates.
[6] abbreviates: CCR6, dose range 1, mean IC50 across replicates.
Setting [7] is: CXCR6, dose range 1, mean IC50 across replicates.

Active and inactive are the calls of the source. The rule behind the calls is not given here. A value given as a limit tells only on which side of the number the result lay.

The text below walks through data of PubChem BioAssay AID624129 (Sanford-Burnham Center for Chemical Genomics, 2012).

C-X-C chemokine receptor type 6 (Homo sapiens), sequence (O00574 whole entry, looked up): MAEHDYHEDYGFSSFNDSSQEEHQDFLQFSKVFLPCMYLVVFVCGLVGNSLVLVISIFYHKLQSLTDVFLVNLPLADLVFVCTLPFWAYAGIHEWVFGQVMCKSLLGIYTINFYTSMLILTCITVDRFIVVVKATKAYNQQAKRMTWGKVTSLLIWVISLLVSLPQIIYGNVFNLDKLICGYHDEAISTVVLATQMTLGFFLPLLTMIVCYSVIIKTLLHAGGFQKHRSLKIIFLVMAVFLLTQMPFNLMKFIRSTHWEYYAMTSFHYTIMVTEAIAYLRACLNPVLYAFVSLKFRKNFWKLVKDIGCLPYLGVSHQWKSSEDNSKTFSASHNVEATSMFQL
Beta-galactosidase (Escherichia coli), sequence (Q8VNN2 whole entry, looked up): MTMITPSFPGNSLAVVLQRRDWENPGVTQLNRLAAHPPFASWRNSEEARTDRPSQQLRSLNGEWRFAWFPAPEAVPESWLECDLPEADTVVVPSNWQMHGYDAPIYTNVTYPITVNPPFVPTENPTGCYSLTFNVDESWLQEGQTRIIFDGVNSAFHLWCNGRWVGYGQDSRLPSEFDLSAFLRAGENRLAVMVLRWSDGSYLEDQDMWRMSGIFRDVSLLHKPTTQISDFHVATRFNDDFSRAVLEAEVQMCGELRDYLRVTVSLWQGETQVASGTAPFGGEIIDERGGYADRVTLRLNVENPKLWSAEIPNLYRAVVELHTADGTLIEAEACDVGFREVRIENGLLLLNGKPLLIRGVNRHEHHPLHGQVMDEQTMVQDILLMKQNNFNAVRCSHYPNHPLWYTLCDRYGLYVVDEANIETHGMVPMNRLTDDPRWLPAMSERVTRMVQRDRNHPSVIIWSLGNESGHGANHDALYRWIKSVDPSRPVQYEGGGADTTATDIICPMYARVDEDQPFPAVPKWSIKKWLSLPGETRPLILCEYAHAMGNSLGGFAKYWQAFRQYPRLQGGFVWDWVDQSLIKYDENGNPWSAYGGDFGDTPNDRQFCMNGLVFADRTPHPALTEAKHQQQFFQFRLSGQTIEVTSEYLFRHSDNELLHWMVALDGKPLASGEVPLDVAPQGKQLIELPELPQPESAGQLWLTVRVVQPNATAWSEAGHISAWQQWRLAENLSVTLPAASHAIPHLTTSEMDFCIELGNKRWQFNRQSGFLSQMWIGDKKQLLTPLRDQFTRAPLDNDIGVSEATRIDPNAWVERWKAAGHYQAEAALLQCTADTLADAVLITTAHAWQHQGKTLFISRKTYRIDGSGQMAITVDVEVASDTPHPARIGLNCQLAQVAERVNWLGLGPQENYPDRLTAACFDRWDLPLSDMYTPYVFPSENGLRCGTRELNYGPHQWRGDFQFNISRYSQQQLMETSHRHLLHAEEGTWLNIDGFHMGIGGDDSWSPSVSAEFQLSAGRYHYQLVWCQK

Regarding `O=C1C=CC(=O)N1c1ccccc1N1C(=O)C=CC1=O`, the IC50 in assay [1] (setting [5]) was over 80 µM; in assay [1] (run 2, dose range 1) it was over 80 µM; in assay [1] (run 3, dose range 1), over 80 µM; in assay [2] (dose range 1), > 80 µM (inactive); in assay [2] (setting [5]), over 80 µM; in assay [3] (setting [6]), over 80 µM. For the same molecule, the IC50 in assay [3] (CCR6, run 2, dose range 1) was over 80 µM; in assay [4] (CXCR6, dose range 1), > 80 µM (inactive); in assay [4] (setting [7]) it was over 80 µM; in assay [4] (CXCR6, run 2, dose range 1), over 80 µM. Moreover, the inhibition in assay [4] came to 42.9%.
As to `C=C1C(=O)C23C(O)C1CCC2C12CCCC(C)(COC(C)=O)C1C(O)C3(O)OC2` (stereo not given), the IC50 in assay [1] (dose range 1) is 9 µM; in assay [1] (setting [5]), 8.77 µM; in assay [1] (run 2, dose range 1), 7.67 µM; in assay [1] (run 3, dose range 1), 9.63 µM; in assay [2] (dose range 1), > 80 µM (inactive); in assay [2] (setting [5]), over 80 µM. The IC50 in assay [3] (CCR6, dose range 1) is 5.19 µM; in assay [3] (setting [6]), 5.59 µM; in assay [3] (CCR6, run 2, dose range 1), 6 µM; in assay [4] (CXCR6, dose range 1), 6.64 µM; in assay [4] (setting [7]), 6.29 µM; in assay [4] (CXCR6, run 1, dose range 2) it was 6.49 µM. The IC50 in assay [4] (CXCR6, run 2, dose range 1) came out at 6.24 µM; in assay [4] (CXCR6, run 2, dose range 2) it was 5.8 µM.
For the molecule `C/C(=N\NC(=O)Cc1ccc(Cl)cc1)c1ccccn1`, the IC50 in assay [1] (dose range 1) was 3.41 µM; in assay [1] (setting [5]), 14 µM; in assay [1] (run 2, dose range 1), 4.94 µM; in assay [1] (run 3, dose range 1), 33.7 µM; in assay [2] (dose range 1), > 80 µM (inactive); in assay [2] (setting [5]), over 80 µM. For the same molecule, the IC50 in assay [3] (CCR6, dose range 1) is 3.22 µM; in assay [3] (setting [6]) it was 3.45 µM; in assay [3] (CCR6, run 2, dose range 1) it was 3.69 µM; in assay [4] (CXCR6, dose range 1) it was 3.73 µM; in assay [4] (setting [7]), 3.75 µM; in assay [4] (CXCR6, run 1, dose range 2), 3.29 µM. The IC50 in assay [4] (CXCR6, run 2, dose range 1) was 4.52 µM; in assay [4] (CXCR6, run 2, dose range 2), 3.45 µM.
With `CC(=O)Nc1ccc(Sc2ccc([N+](=O)[O-])o2)cc1`, the IC50 in assay [1] (dose range 1) was 14.2 µM; in assay [1] (setting [5]), 14.4 µM; in assay [1] (run 2, dose range 1), 15.4 µM; in assay [1] (run 3, dose range 1), 13.6 µM; in assay [2] (dose range 1), > 80 µM (inactive); in assay [2] (setting [5]), over 80 µM. Besides, the IC50 in assay [3] (CCR6, dose range 1) is 9.21 µM; in assay [3] (setting [6]), 8.82 µM; in assay [3] (CCR6, run 2, dose range 1), 8.44 µM; in assay [4] (CXCR6, dose range 1) it was 13.7 µM; in assay [4] (setting [7]), 10.7 µM; in assay [4] (CXCR6, run 1, dose range 2), 9.08 µM. Also, the IC50 in assay [4] (CXCR6, run 2, dose range 1) was 8.84 µM; in assay [4] (CXCR6, run 2, dose range 2), 11.3 µM.
For `Cc1ccc(C(C[N+](=O)[O-])Sc2ccc(N)cc2)cc1` (stereo not given), the IC50 in assay [1] (dose range 1) is 15.5 µM; in assay [1] (setting [5]) it was 19.1 µM; in assay [1] (run 2, dose range 1), 22.8 µM; in assay [1] (run 3, dose range 1), over 80 µM; in assay [2] (dose range 1), 31.8 µM; in assay [2] (setting [5]) it was 31.8 µM. Also, the IC50 in assay [3] (CCR6, dose range 1) was 14.3 µM; in assay [3] (setting [6]), 18.8 µM; in assay [3] (CCR6, run 2, dose range 1), 23.3 µM; in assay [4] (setting [7]), 21.8 µM; in assay [4] (CXCR6, run 2, dose range 1), 24 µM. Besides, in assay [4] (CXCR6, dose range 1), the IC50 result was “inactive”. Moreover, in assay [4], the inhibition was determined as 157%.
In the case of `CCC(=O)OCCNc1cc(Sc2nc3ccccc3[nH]2)c2nonc2c1[N+](=O)[O-]`, the IC50 in assay [1] (dose range 1) was 9.49 µM; in assay [1] (setting [5]), 7.79 µM; in assay [1] (run 2, dose range 1) it was 6.65 µM; in assay [1] (run 3, dose range 1), 7.23 µM; in assay [2] (dose range 1), 27.1 µM; in assay [2] (setting [5]) it was 27.1 µM. Further, the IC50 was 4.73 µM in assay [3] (CCR6, dose range 1); 4.66 µM in assay [3] (setting [6]); 4.58 µM in assay [3] (CCR6, run 2, dose range 1); 4.57 µM in assay [4] (CXCR6, dose range 1); 5.64 µM in assay [4] (setting [7]); 5.85 µM in assay [4] (CXCR6, run 1, dose range 2). In addition, the IC50 came to 6.71 µM in assay [4] (CXCR6, run 2, dose range 1) and 5.42 µM in assay [4] (CXCR6, run 2, dose range 2).

As a reminder, the IC50 is the concentration that inhibits the measured activity by half. The term inhibition denotes the change of the read-out against control, counted positive when it falls.
